The values below come from US20240216289A1, “LIPIDOID NANOPARTICLES FOR THE TREATMENT OF DISEASES AND DISORDERS” (Trustees of Tufts College, priority 2021, published 2024).

Entries after “also recorded” stand apart in the source; their conditions may differ.

The test system of one series is OVA. The series can be described thus: ELISA for antibody titer after OVA mRNA vaccination. The format is in vivo. The following applies: 14 days after second dose.
In the next series the test system is inguinal lymph nodes. The series can be described thus: Luc mRNA expression in inguinal lymph nodes after subcutaneous tail-base injection of LNP/mLuc (IVIS). It is filed as in vivo, Balb/c mice. The settings on record: subcutaneous at tail base, 6 h, bioluminescence.
Series [1] deals with liver. The series can be described thus: Luc mRNA expression in liver after subcutaneous tail-base injection of LNP/mLuc (IVIS). The following applies: subcutaneous at tail base, 6 h, bioluminescence. It is filed as in vivo, Balb/c mice.
Series [2] deals with macrophages and dendritic cells (DCs) in inguinal lymph nodes. The series can be described thus: Delivery of Cre mRNA to LNs in Ai14 reporter mice (tdTomato positive cells, flow cytometry). It is filed as in vivo. The following applies: LNP/Cre mRNA s.c., 48 h; result in words.
For series [3], the system named is liver. The series can be described thus: Mouse liver-directed 3′UTR and cap screening in mRNA format (L88 LNP, IVIS). It is filed as in vivo, BALB/c mice. The settings on record: Lipid 88 delivery, 0.2 mg/kg IV. On the procedure: Mouse liver-directed 3′UTR screening in mRNA format. 6-week-old female BALB/c mice were used for in vivo modified Fluc-eGFP mRNA screening with L88 LNP delivery. Each UTRs modified Fluc-eGFP mRNA were encapsulated in an optimal Lipid 88 formulation (L88:Chol:DOPC:DMG-PEG=16:4:2:1, w w) at the weight ratio of 1:10 in PBS solution (RNase-free). The L88/Fluc-eGFP mRNA complex was intravenously injected into the mice at a mRNA dose of 0.2 mg/kg. At each preset time point, mice were injected with 100 μL of D-Luciferin potassium salt (GoldBio) solution (15 mg/mL in PBS), anesthetized under isoflurane anesthesia, and evaluated using IVIS imaging system (Caliper Life Sciences, US).

Another series deals with HEK293T cells. The series can be described thus: 5′UTR and 3′UTR optimization in HEK293T cells (eGFP, flow cytometry). The format is cell-based. The settings on record: LPF2k. How it is done: 5′UTR optimization in HEK293T cells. Prior to transfection, HEK293T cells were seeded on a 48-well plate at 40,000 cells/well, with 500 μL DMEM culture in each well. 6 groups were set with different treatments: Lipofectamine 2000 (LPF2k) only, pcDNA3.0-eGFP, pcDNA3.0-NCA7d-eGFP, pcDNA-70nt-eGFP, pcDNA3.0-Ces1d-eGFP and pcDNA3.0-S27a45′-eGFP. LPF2k was complexed each plasmid in equal amount (0.5 μg/0.5 μg) before being added to each well. At each time point (36 hrs, 60 hrs, 84 hrs and 108 hrs), cells were washed with PBS and then treated with 500 μL 0.25% Typsine-EDTA 10 (Gibco) for 3 min. Resuspended cells were applied to the Attune NxT Flow Cytometer (Thermo Fisher) directly (FIG. 10).
3′UTR optimization in HEK293T cell. Similar to 5′UTR optimization, thirteen 3′UTRs modified pcDNA3.0-Ces1d-eGFP and pcDNA3.0-70nt-eGFP were encapsulated in LPF2k at a 1:1 weight ratio and then transfected into HEK293T cells. At each time point (48 hrs, 72 hrs, 96 hrs and 120 hrs), cells were washed with PBS and then treated with 500 μL 0.25% Typsine-EDTA (Gibco) for 3 min. Resuspended cell were applied to the Attune NxT Flow Cytometer (Thermo Fisher) directly (FIG. 11).

The test system of series [4] is IFN γ and IL-4 positive T cells. The series can be described thus: IFN γ and IL-4 ELISpot after S protein mRNA vaccination. The format is in vivo, mice. The settings on record: spleen day 28.
Procedure: The blood and spleen were collected at day 28 for further analysis.
The T cell response after the vaccination was analyzed by IFN γ and IL-4 ELISpot (FIGS. 5A-C).
The T cell response after vaccination was tested by ELISpot assay.

Turning to `CCCCCCCCC(CCCCCC)C(=O)OCCCCCCN(CCCCO)CCCCCCOC(=O)C(CCCCCC)CCCCCCCC` (stereo not shown) [ALC-0315], the “antibody response (total IgG, IgG1, IgG2c)” value with OVA is reported as “peak antibody level”. In addition, the “Luc mRNA expression in inguinal (draining) lymph nodes” value in the series with inguinal lymph nodes is reported as “obvious signal in draining LNs”. The “Luc mRNA expression in liver” value with liver [1] is recorded as “significantly increased expression of Luc in liver; also recorded: significantly higher expression in liver”. Also, the “transfection of cells in inguinal lymph nodes” value in series [2] was “less efficacy compared with 113-F2 LNP; also recorded: successfully delivered Cre mRNA to antigen-presenting cells (APC)”.

As for Apolipoprotein A-II, the “ARCA capped 70nt-Fluc-eGFP mRNA Fluc expression in the liver” value in the series with liver [3] is “highest Fluc expression in the liver relative to other eight 3′UTR modifications”. For the same molecule, the “eGFP expression, 3′UTR in pcDNA3.0-70nt-eGFP” value in the series with HEK293T cells (48-120 hrs) is recorded as “top-performing 3′UTR candidates”.

Pam3CSK4: the “Luc mRNA expression in inguinal (draining) lymph nodes” value with inguinal lymph nodes is listed as “decreased the mRNA expression in draining lymph nodes”. Moreover, in series [4], the “IL-4 positive T cells (ELISpot)” value was “increased the Th1 T cell response and percentage of IL-4 secreting T cells; also recorded: significantly induced IL-4 secreting T cells compared with all other groups”. Moreover, the “transfection of cells in inguinal lymph nodes” value in series [2] is “decreased the transfection efficacy”.

B1: Ces1d: 5′UTR fragment, sequence in Table 1 (nucleic acid)
DNA: CCACTAGTTCTAGAGGTACCTTGGACCCTCGTACAGAAGCTAATACGACTCACTATAAGGAGGCGGGTCCCCTGGTCCACAACAGAAGCATTGCTAAAGCAGCAGATAGCTCAGAGACCCACAGAGCCCTTGTCCTTCCACAGAATTCGCCACCATGGAAGA
On to B1, for which the “eGFP expression, 5′UTR in pcDNA3.0-eGFP” value with HEK293T cells (36-108 hrs) is given as “top-performing 5′UTR candidates”.
